Patent publication US9505716B2, “Pyrrolidine triple reuptake inhibitors” (SUNOVION PHARMACEUTICALS INC., priority 2009, dated 2016)

Tests used:
[1] = biological target: T1, recombinant human dopamine transporter expressed in either CHO-K1 or HEK293 cells (Homo sapiens, UniProt Q01959); assay: Dopamine functional uptake assay for human reuptake transporter; assay type: cell-based; settings: functional uptake of dopamine
T1 construct: expressed in transfected cells; host or cells: CHO-K1 or HEK293
T1 sequence (Q01959 whole entry): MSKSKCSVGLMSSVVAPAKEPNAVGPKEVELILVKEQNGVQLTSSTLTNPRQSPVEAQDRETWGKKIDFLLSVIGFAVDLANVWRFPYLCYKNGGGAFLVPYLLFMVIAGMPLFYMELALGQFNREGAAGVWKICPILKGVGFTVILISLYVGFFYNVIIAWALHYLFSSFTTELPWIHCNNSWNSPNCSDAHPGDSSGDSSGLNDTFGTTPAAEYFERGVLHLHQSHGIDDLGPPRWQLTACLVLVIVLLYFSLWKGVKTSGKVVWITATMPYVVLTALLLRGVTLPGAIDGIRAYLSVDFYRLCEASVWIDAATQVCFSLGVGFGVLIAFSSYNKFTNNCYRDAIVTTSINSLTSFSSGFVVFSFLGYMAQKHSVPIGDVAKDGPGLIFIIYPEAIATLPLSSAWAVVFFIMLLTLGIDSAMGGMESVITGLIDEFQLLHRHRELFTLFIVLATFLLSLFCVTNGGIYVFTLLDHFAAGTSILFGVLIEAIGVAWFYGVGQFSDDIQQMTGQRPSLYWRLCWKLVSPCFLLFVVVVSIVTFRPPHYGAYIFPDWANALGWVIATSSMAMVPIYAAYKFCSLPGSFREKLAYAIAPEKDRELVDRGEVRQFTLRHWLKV
Procedure: (§1) Compounds were initially tested at 10 μM in duplicate.
Either CHO-K1 or HEK293 cells expressing human recombinant dopamine transporter were plated before the assay. Test compound and/or vehicle was preincubated with cells in modified HEPES buffer pH 7.1 or pH 7.4 for 20 minutes at 18 to 25° C. and 50 nM [^3H]dopamine was then added for an additional timed incubation period (10 to 30 minutes). After washing the cells to remove [^3H]dopamine not internalized, the cells were lysed, and the amount of tritium in the lysate was measured using a liquid scintillation counter to determine [^3H]dopamine uptake. Non-specific binding of tritium was measured in a control reaction containing 10 μM nomifensine, and was subtracted from the counts for assays to correct for non-specific binding of tritium. Reduction of [^3H]dopamine uptake by 50 percent or more (≧50%) relative to an uninhibited control reaction indicates significant inhibitory activity.

[2] = biological target: T2, recombinant human norepinephrine transporter expressed in either HEK293 or MDCK cells (Homo sapiens, UniProt P23975); assay: Norepinephrine functional uptake assay for human reuptake transporter; assay type: cell-based; settings: functional uptake of norepinephrine
T2 construct: expressed in transfected cells; host or cells: HEK293 or MDCK
T2 sequence (P23975 whole entry): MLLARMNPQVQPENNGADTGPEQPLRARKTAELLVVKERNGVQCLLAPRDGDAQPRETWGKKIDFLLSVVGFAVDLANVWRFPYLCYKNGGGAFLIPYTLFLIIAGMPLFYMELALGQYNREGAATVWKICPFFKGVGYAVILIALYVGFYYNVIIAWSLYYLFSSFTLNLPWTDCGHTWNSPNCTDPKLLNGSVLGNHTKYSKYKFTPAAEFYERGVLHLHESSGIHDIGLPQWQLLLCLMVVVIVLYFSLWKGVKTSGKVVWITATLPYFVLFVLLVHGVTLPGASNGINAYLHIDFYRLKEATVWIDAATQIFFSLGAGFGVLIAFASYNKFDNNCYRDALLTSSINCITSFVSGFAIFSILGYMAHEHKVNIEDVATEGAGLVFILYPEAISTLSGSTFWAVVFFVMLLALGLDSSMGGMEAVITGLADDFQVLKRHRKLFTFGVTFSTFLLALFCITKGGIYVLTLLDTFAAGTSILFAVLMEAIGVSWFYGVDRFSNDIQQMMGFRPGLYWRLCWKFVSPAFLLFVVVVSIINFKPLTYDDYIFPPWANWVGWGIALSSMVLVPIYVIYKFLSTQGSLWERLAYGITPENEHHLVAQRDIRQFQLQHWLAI
Procedure: as §1
The cells were plated before the assay. Test compound and/or vehicle was preincubated with cells in modified HEPES buffer pH 7.1 or pH 7.4 for 20 minutes at 18 to 25° C. […] After the cells were washed to remove [^3H]norepinephrine not internalized, the cells were lysed, and the amount of tritium in the cell lysate was measured using a liquid scintillation counter to determine [^3H]norepinephrine uptake. Non-specific binding of tritium was measured in a control reaction containing […] (or […]), and was subtracted from the counts for assays to correct for non-specific binding of tritium. Reduction of [^3H]norepinephrine uptake by 50 percent or more (≧50%) relative to an uninhibited control reaction indicates significant inhibitory activity.

[3] = biological target: T3, recombinant human serotonin transporter expressed in HEK-293 cells (Homo sapiens, UniProt P31645); assay: Serotonin functional uptake assay for human reuptake transporter; assay type: cell-based; settings: functional uptake of serotonin; read-out: hSERT (IC50 nM)
T3 construct: expressed in transfected cells; host or cells: HEK-293
T3 sequence (P31645 whole entry): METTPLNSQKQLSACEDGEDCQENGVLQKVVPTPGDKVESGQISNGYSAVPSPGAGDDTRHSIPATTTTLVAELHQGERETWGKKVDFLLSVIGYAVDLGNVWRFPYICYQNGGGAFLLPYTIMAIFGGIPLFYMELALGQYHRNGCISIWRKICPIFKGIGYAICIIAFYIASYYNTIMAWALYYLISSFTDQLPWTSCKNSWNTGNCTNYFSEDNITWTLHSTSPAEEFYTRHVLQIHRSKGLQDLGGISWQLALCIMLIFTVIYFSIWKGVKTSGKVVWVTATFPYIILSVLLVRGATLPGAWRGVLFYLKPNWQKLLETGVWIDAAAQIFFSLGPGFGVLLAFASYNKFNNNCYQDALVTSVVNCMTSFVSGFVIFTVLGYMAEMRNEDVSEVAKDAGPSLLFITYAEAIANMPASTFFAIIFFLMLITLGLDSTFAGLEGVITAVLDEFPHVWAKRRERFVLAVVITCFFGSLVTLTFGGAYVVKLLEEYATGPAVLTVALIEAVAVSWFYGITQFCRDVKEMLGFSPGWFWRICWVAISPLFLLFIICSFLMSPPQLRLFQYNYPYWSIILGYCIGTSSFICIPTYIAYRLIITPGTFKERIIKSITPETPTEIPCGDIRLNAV
Procedure: as §1
HEK-293 cells expressing human serotonin transporter were plated before the assay. […] Cells with internalized [^3H]serotonin were washed and the amount of tritium taken into cells is counted using a liquid scintillation counter to determine [^3H]serotonin uptake. Non-specific binding of tritium was measured in a control reaction containing […], and was subtracted from the counts for assays to correct for non-specific binding of tritium. Reduction of [^3H]serotonin uptake by 50 percent or more (≧50%) relative to an uninhibited control reaction indicates significant inhibitory activity.

serotonin uptake sites = serotonin uptake sites (Homo sapiens, UniProt P31645); settings: compared with the racemic compound; cited from earlier work
Chain of serotonin uptake sites (P31645 whole entry): as above

[4] = in vivo; cited from earlier work

SMILES | hDAT (IC50 nM) [1] | hNET (IC50 nM) [2] | IC50 [3] | affinity for the serotonin uptake sites (serotonin uptake sites) | immobility in the tail suspension test [4]
Clc1ccc(C2(C3CCNC3)CCC2)cc1Cl (single isomer, unassigned) [Compound 7] | +++ (IC50 < 10 nM) | ++ (IC50 ≦ 100 nM) | < 100 nM |  | 
C[C@]1(O)CC[C@](c2ccc(Cl)c(Cl)c2)([C@@H]2CCNC2)CC1 [Compound 19] | +++ (IC50 < 10 nM) | ++ (IC50 ≦ 100 nM) | < 10 nM |  | 
C[C@]1(O)CC[C@@](c2ccc(Cl)c(Cl)c2)([C@H]2CCNC2)CC1 [Compound 17] | ++ (IC50 ≦ 100 nM) | +++ (IC50 < 10 nM) | < 10 nM |  | 
O[C@@]1(C2(c3ccc(Cl)c(Cl)c3)CCCC2)CCNC1 [Compound 29] | ++ (IC50 ≦ 100 nM) | +++ (IC50 < 10 nM) | < 10 nM |  | 
Clc1ccc(C2(C3CCNC3)CCCCC2)cc1Cl (single isomer, unassigned) [Compound 2] | ++ (IC50 ≦ 100 nM) | ++ (IC50 ≦ 100 nM) | < 100 nM |  | 
c1ccc2cc(C3(C4CCNC4)CCCCC3)ccc2c1 (single isomer, unassigned) [Compound 9] | ++ (IC50 ≦ 100 nM) | + (100 nM < IC50 ≦ 500 nM) | < 10 nM |  | 
Clc1ccc([C@@]23CNC[C@@H]2C3)cc1Cl (single isomer, unassigned) [DOV 21,947, (+)-1-(3,4-dichlorophenyl)-3-azabicyclo[3.1.0]hexane] |  |  |  | significantly greater affinity | dose-dependent reduction in immobility
C[C@]1(O)CC[C@@](c2ccc(Cl)c(Cl)c2)([C@@H]2CCNC2)CC1 [Compound 18] | ++ (IC50 ≦ 100 nM) | +++ (IC50 < 10 nM) | < 10 nM |  | 
O[C@H]1CC[C@@](c2ccc(Cl)c(Cl)c2)([C@H]2CCNC2)CC1 [Compound 21] | ++ (IC50 ≦ 100 nM) | +++ (IC50 < 10 nM) | < 10 nM |  | 
c1ccc2cc(C3(C4CCNC4)CCCC3)ccc2c1 (single isomer, unassigned) [Compound 11] | +++ (IC50 < 10 nM) | +++ (IC50 < 10 nM) | < 1 nM |  | 
Clc1ccc(C2(C3CCNC3)CCCC2)cc1Cl (single isomer, unassigned) [Compound 6] | ++ (IC50 ≦ 100 nM) | ++ (IC50 ≦ 100 nM) | < 10 nM |  | 
O[C@H]1CC[C@@](c2ccc(Cl)c(Cl)c2)([C@@H]2CCNC2)CC1 [Compound 22] | +++ (IC50 < 10 nM) | +++ (IC50 < 10 nM) | < 10 nM |  | 
c1ccc2cc(C3(C4CCNC4)CCC3)ccc2c1 (single isomer, unassigned) [Compound 14] | ++ (IC50 ≦ 100 nM) | ++ (IC50 ≦ 100 nM) | < 10 nM |  | 
CO[C@]1(C)CC[C@@](c2ccc(Cl)c(Cl)c2)([C@H]2CCNC2)CC1 [Compound 28] | ++ (IC50 ≦ 100 nM) | +++ (IC50 < 10 nM) | < 100 nM |  | 
Clc1ccc(C2(C3CCNC3)CCCC2)cc1Cl (single isomer, unassigned) [Compound 5] | ++ (IC50 ≦ 100 nM) | ++ (IC50 ≦ 100 nM) | < 100 nM |  | 
Clc1ccc(C2(C3CCNC3)CCOCC2)cc1Cl (centres unmarked) [Compound 15] | ++ (IC50 ≦ 100 nM) | ++ (IC50 ≦ 100 nM) | < 100 nM |  | 

SMILES | hDAT (IC50 nM) [1] | hNET (IC50 nM) [2] | IC50 [3] | affinity for the serotonin uptake sites (serotonin uptake sites) | immobility in the tail suspension test [4]
Clc1ccc(C2(C3CCNC3)CCOCC2)cc1Cl (centres unmarked) [Compound 16] | +++ (IC50 < 10 nM) | +++ (IC50 < 10 nM) | < 10 nM |  | 
CO[C@]1(C)CC[C@](c2ccc(Cl)c(Cl)c2)([C@@H]2CCNC2)CC1 [Compound 26] | +++ (IC50 < 10 nM) | +++ (IC50 < 10 nM) | < 100 nM |  | 
c1ccc2cc(C3(C4CCNC4)CCCCC3)ccc2c1 (single isomer, unassigned) [Compound 10] | ++ (IC50 ≦ 100 nM) | ++ (IC50 ≦ 100 nM) | < 1 nM |  | 
Clc1ccc(C2(C3CCNC3)CCCCC2)cc1Cl (single isomer, unassigned) [Compound 1] | ++ (IC50 ≦ 100 nM) | +++ (IC50 < 10 nM) | < 1 nM |  | 
c1ccc2cc(C3(C4CCNC4)CCC3)ccc2c1 (single isomer, unassigned) [Compound 13] | ++ (IC50 ≦ 100 nM) | ++ (IC50 ≦ 100 nM) | < 100 nM |  | 
Clc1ccc(C2(C3CCNC3)CCC2)cc1Cl (single isomer, unassigned) [Compound 8] | ++ (IC50 ≦ 100 nM) | ++ (IC50 ≦ 100 nM) | < 100 nM |  | 
CO[C@]1(C)CC[C@@](c2ccc(Cl)c(Cl)c2)([C@@H]2CCNC2)CC1 [Compound 27] | ++ (IC50 ≦ 100 nM) | +++ (IC50 < 10 nM) | < 10 nM |  | 
c1ccc2cc(C3(C4CCNC4)CCCC3)ccc2c1 (single isomer, unassigned) [Compound 12] | ++ (IC50 ≦ 100 nM) | ++++ (IC50 < 1 nM) | < 1 nM |  | 
CN1CCC(C2(c3ccc(Cl)c(Cl)c3)CCCCC2)C1 (centres unmarked) [Compound 3] | ++ (IC50 ≦ 100 nM) | + (100 nM < IC50 ≦ 500 nM) | 100 to 500 nM |  | 
O[C@]1(C2(c3ccc(Cl)c(Cl)c3)CCCC2)CCNC1 [Compound 30] | ++ (IC50 ≦ 100 nM) | ++ (IC50 ≦ 100 nM) | < 100 nM |  | 
CO[C@]1(C)CC[C@](c2ccc(Cl)c(Cl)c2)([C@H]2CCNC2)CC1 [Compound 25] | +++ (IC50 < 10 nM) | ++ (IC50 ≦ 100 nM) | < 10 nM |  | 
C[C@]1(O)CC[C@](c2ccc(Cl)c(Cl)c2)([C@H]2CCNC2)CC1 [Compound 20] | +++ (IC50 < 10 nM) | ++ (IC50 ≦ 100 nM) | < 10 nM |  | 
O[C@H]1CC[C@](c2ccc(Cl)c(Cl)c2)([C@@H]2CCNC2)CC1 [Compound 24] | +++ (IC50 < 10 nM) | ++++ (IC50 < 1 nM) | < 1 nM |  | 
O[C@H]1CC[C@](c2ccc(Cl)c(Cl)c2)([C@H]2CCNC2)CC1 [Compound 23] | +++ (IC50 < 10 nM) | +++ (IC50 < 10 nM) | < 10 nM |  | 
CN1CCC(C2(c3ccc(Cl)c(Cl)c3)CCCCC2)C1 (centres unmarked) [Compound 4] | +++ (IC50 < 10 nM) | − (IC50 > 500 nM) | > 500 nM |  | 
